Source: BindingDB's records for doi:10.1016/j.bmcl.2018.10.045 (Merck, 2019)

How the values were obtained:
[1] = Inhibition of NS5B polymerase in HCV genotype 4A infected in HuH7 cells after 40 hrs by Taqman probe based RT-PCR analysis
[2] = Inhibition of NS5B polymerase in HCV genotype 1b infected in HuH7 cells after 40 hrs by Taqman probe based RT-PCR analysis
[3] = Inhibition of NS5B polymerase in HCV genotype 2A infected in HuH7 cells after 40 hrs by Taqman probe based RT-PCR analysis
[4] = Inhibition of NS5B polymerase in HCV genotype 3A infected in HuH7 cells after 40 hrs by Taqman probe based RT-PCR analysis
[5] = Inhibition of NS5B polymerase C316Y mutant in HCV genotype 1A infected in HuH7 cells after 40 hrs by Taqman probe based RT-PCR analysis
[6] = Inhibition of NS5B polymerase in HCV genotype 2B infected in HuH7 cells after 40 hrs by Taqman probe based RT-PCR analysis
[7] = Inhibition of NS5B polymerase in HCV genotype 1a infected in HuH7 cells after 40 hrs by Taqman probe based RT-PCR analysis
[8] = Inhibition of NS5B polymerase S365A mutant in HCV genotype 1A infected in HuH7 cells after 40 hrs by Taqman probe based RT-PCR analysis
[9] = Inhibition of NS5B polymerase E1202G/T1280I/S2197P mutant in HCV genotype 1b infected in human HuH7 replicon cells after 72 hrs in presence of 10% FBS by luciferase-based reporter assay
[10] = Inhibition of NS5B polymerase E1202G/T1280I/S2197P mutant in HCV genotype 1b infected in human HuH7 replicon cells after 72 hrs in presence of 50% human serum by luciferase-based reporter assay
[11] = Inhibition of NS5B polymerase E1202G/T1280I/S2197P mutant in HCV genotype 2a infected in human HuH7 replicon cells after 72 hrs in presence of 10% FBS by luciferase-based reporter assay
[12] = Inhibition of NS5B polymerase E1202G/T1280I/S2197P mutant in HCV genotype 1a infected in human HuH7 replicon cells after 72 hrs in presence of 10% FBS by luciferase-based reporter assay

Row | Compound | EC50 [1] [nM] | EC50 [2] [nM] | EC50 [3] [nM] | EC50 [4] [nM] | EC50 [5] [nM] | EC50 [6] [nM] | EC50 [7] [nM] | EC50 [8] [nM] | EC50 [9] [nM] | EC50 [10] [nM] | EC50 [11] [nM] | EC50 [12] [nM]
1 | CNC(=O)c1c(-c2ccc(F)cc2)oc2cc(N(C)S(C)(=O)=O)c(-c3cc4n(c(=O)c3)CCn3c-4cc4c(F)cccc43)cc12 | 1.5 | 1.3 | 11 | 0.62 | 9.8 | 2.2 | 0.61 | 6.4 | – | – | – | –
2 | CNC(=O)c1c(-c2ccc(F)cc2)oc2cc(N(C)S(C)(=O)=O)c(-c3ccc4c(n3)-c3cc5c(F)cccc5n3CN4)cc12 | 1.1 | 1.8 | 5.7 | 1 | 7.6 | 2.9 | 0.9 | 3.1 | 5.3 | 46 | 6.4 | 5.3
3 | CNC(=O)c1c(-c2ccc(F)cc2)oc2cc(N(C)S(C)(=O)=O)c(-c3ccc4ncn5c6cccc(F)c6cc5c4n3)cc12 | 0.63 | 1.4 | 3.4 | 1 | 3.1 | 2.4 | 0.68 | 1 | 3.2 | 16 | 3.3 | 2
4 | CNC(=O)c1c(-c2ccc(F)cc2)oc2cc(N(C)S(C)(=O)=O)c(-c3ccc4c(n3)-c3cc5c(F)cccc5n3CCC4)cc12 [US9243002, 72] | 1.5 | 1.9 | 6.8 | 1.2 | 26 | 6.5 | 1.1 | 16 | – | – | – | –
5 | CNC(=O)c1c(-c2ccc(F)cc2)oc2cc(N(C)S(C)(=O)=O)c(-c3ccc4ccn5c6cccc(F)c6cc5c4n3)cc12 [US9243002, 82] | 1.2 | 2.6 | 6.7 | 1.2 | 11 | 3.5 | 0.95 | 4.8 | 5.5 | 30 | 6.3 | 2.9
6 | CNC(=O)c1c(-c2ccc(F)cc2)oc2cc(N(C)S(C)(=O)=O)c(-c3ccc4c(n3)-c3cc5c(F)cccc5n3CC4)cc12 [US9243002, 85] | 1.2 | 2.1 | 6 | 1.1 | 8.4 | 2.7 | 0.86 | 6.5 | 3.3 | 13 | 5.7 | 3
7 | CNC(=O)c1c(-c2ccc(F)cc2)oc2cc(N(C)S(C)(=O)=O)c(-c3ccc4c(n3)-c3cc5c(F)cccc5n3C4)cc12 [US9243002, 88] | 2.7 | 5.1 | 8.5 | 3 | 9.5 | 3.9 | 2.2 | 34 | – | – | – | –
8 | CNC(=O)c1c(-c2ccc(F)cc2)oc2cc(N(C)S(C)(=O)=O)c(-c3ccc4c(n3)-c3cc5c(F)cccc5n3CCCC4)cc12 [US9243002, 99] | 3.5 | 5.2 | 26 | 1.9 | 13 | 3.8 | 2 | 42 | – | – | – | –
